Laboratory results published in paper PMC8343194 (Acta Pharmaceutica Sinica. B, 2021).
Where two headings read alike, the source gives them in different places. Values belong to the compound of their own block, whether it stands above or below them.

Legend:
MDA435/LCC6 cells = assay: Sulforhodamine B cytotoxicity assay, parental cells; format: cell-based; settings: Homo sapiens
[1] = Pharmacokinetic study of paclitaxel with oral type I POPs; format: in vivo, Sprague–Dawley rats
MDA435/LCC6 MDR1 cells = assay: Sulforhodamine B cytotoxicity / MDR reversal assay, ABCB1-transfected cells; format: cell-based, human; settings: for IC50: Homo sapiens
[2] = Sprague-Dawley, rat, plasma, iv, 6 mg/kg
[3] = compound at 0.4 μmol/L, MDA435/LCC6 MDR1

- brain accumulation of paclitaxel ([1]; 24 h after last dose, 6 consecutive days): no brain accumulation of paclitaxel
- half-life ([1]; Sprague-Dawley, rat, plasma, intravenous): 4.2 ± 0.3 h
- clearance [1, 2]: 91.7 mL/min/kg
- half-life [1, 2]: 3.2 ± 0.7 h
- Ctrough of paclitaxel after the last dose ([1]; paclitaxel iv 6 mg/kg/day ± type I POPs po 50 mg/kg/day for 6 consecutive days): 15.8 ± 6.6 nM
Structure (SMILES): CC(=O)O[C@H]1C(=O)[C@@]2(C)[C@H]([C@H](OC(=O)c3ccccc3)[C@]3(O)C[C@H](OC(=O)[C@H](O)[C@@H](NC(=O)c4ccccc4)c4ccccc4)C(C)=C1C3(C)C)[C@]1(OC(C)=O)CO[C@@H]1C[C@@H]2O [Paclitaxel, paclitaxel]
- IC50 (MDA435/LCC6 cells; MDA-435/LCC6, read-out: IC50 of paclitaxel): 1.36 ± 0.14 nM
- behavior and body weight of rats ([1]; 6 consecutive days of paclitaxel alone or with type I POPs mixture): no abnormality in behavior and no significant weight losses
- IC50 (MDA435/LCC6 MDR1 cells; read-out: IC50 of paclitaxel): 120 ± 9.44 nM

Structure (SMILES): COc1cccc2c1C(=O)c1c(O)c3c(c(O)c1C2=O)C[C@@](O)(C(=O)CO)C[C@@H]3O[C@H]1C[C@H](N)[C@H](O)[C@H](C)O1 [Doxorubicin, doxorubicin]
- IC50 (MDA435/LCC6 cells; MDA-435/LCC6, read-out: IC50 of doxorubicin): 76 ± 8 nM
- IC50 (MDA435/LCC6 MDR1 cells; read-out: IC50 of doxorubicin): 695 ± 40 nM

Structure (SMILES): C/C=C/C[C@@H](C)C(=O)[C@H]1C(=O)N[C@@H](C(C)C)C(=O)N(C)CC(=O)N(C)[C@@H](CC(C)C)C(=O)N[C@@H](C(C)C)C(=O)N(C)[C@@H](CC(C)C)C(=O)N[C@@H](C)C(=O)N[C@H](C)C(=O)N(C)[C@@H](CC(C)C)C(=O)N(C)[C@@H](CC(C)C)C(=O)N(C)[C@@H](C(C)C)C(=O)N1C [PSC833, valspodar]
- Fold change of doxorubicin IC50 (alone/combination) (MDA435/LCC6 MDR1 cells; [3]): 11
- Fold change of paclitaxel IC50 (alone/combination) (MDA435/LCC6 MDR1 cells; [3]): 59
